Common to all, as to assay: growth of human tumour cells (NCI), 48 h
For assay [1], the system named is LOX IMVI melanoma.
Assay [2] concerns NCI-H226 lung.
In assay [3] the test system is OVCAR-5 ovarian.
Assay [4] has as its system HOP-92 NSCLC.
The subject of assay [5] is KM12 colon.
Assay [6] deals with SF-539 CNS.
The subject of assay [7] is SK-MEL-2 melanoma.
In assay [8] the test system is UACC-62 melanoma.
Assay [9] relates to SNB-75 CNS.
Assay [10] has as its system SW-620 colon.

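How tested: cells in 96-well plates exposed to compound for 48 hours at five concentrations. Abbreviation: GI50, concentration required for 50% inhibition of growth. At the TGI there is no net growth.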

In the case of `Cc1cc(O)cc(C)c1/C=C/c1cncc(C(=O)N(C)C)c1`, the GI50 in [1], in assay [2], in assay [3], in assay [4], in [5] and in assay [6] was greater than 25 µM throughout. In addition, the GI50 is greater than 25 µM in assay [7], greater than 25 µM in assay [8], greater than 13.7 µM in assay [9] and greater than 25 µM in [10]. Besides, the TGI in [1], in assay [2], in assay [3], in assay [4], in assay [5] and in assay [6] was greater than 25 µM in each case. In addition, the TGI in assay [7], in assay [8], in assay [9] and in [10] was greater than 25 µM in each case.

Take `CCCCc1cc(O)ccc1O`: the GI50 is 14.6 µM in assay [1]; 48.8 µM in [2]; 30 µM in [3]; 26.1 µM in assay [4]; 16.4 µM in assay [5]; 11.5 µM in [6]. Further, the GI50 was 35.8 µM in assay [7], 27.7 µM in assay [8], 14.1 µM in assay [9] and 33.8 µM in assay [10]. In addition, the TGI in [1] was 63.6 µM; in assay [2] it was greater than 100 µM; in assay [3], greater than 100 µM; in [4], greater than 100 µM; in assay [5], greater than 100 µM; in assay [6] it was 45.4 µM. The TGI in assay [7], in [8], in assay [9] and in assay [10] was greater than 100 µM each time.

Turning to `O=[N+]([O-])/C=C\c1ccc2c(c1)OCO2`, the GI50 in assay [1] was 1.83 µM; in [2], 13.8 µM; in assay [3] it was 11.5 µM; in [4] it was 12.5 µM; in assay [5], 2.04 µM; in assay [6], 3.08 µM. In addition, the GI50 is 2.2 µM in [7], 15.3 µM in assay [8], 10.3 µM in assay [9] and 2.07 µM in [10]. In addition, the TGI in assay [1] is 4.15 µM; in assay [2] it was 53 µM; in assay [3] it was 26.4 µM; in [4], 30.9 µM; in [5] it was 4.43 µM; in assay [6], 9.35 µM. Besides, the TGI in [7] was 4.99 µM; in assay [8], 31.8 µM; in assay [9] it was 22.2 µM; in assay [10] it was 4.91 µM.

In the case of `ClCCn1cnc2c(SCc3ccccc3)ncnc21`, the GI50 is 0.534 µM in [1]; 31 µM in assay [2]; greater than 100 µM in [3]; 16.3 µM in assay [4]; 1.04 µM in assay [5]; 8.77 µM in [6]. For the same molecule, the GI50 in assay [7] is 2.24 µM; in assay [8], 6.65 µM; in [9], 0.777 µM; in assay [10], 3.14 µM. Also, the TGI was 18.6 µM in assay [1]; greater than 100 µM in assay [2]; greater than 100 µM in assay [3]; greater than 100 µM in assay [4]; greater than 100 µM in assay [5]; greater than 100 µM in assay [6]. The TGI in [7], in [8], in [9] and in assay [10] was greater than 100 µM in each case.

Take `CC(=O)O/C(C)=C\C(=O)O/N=C(\N)c1ccc(C)cc1`: the TGI in assay [1] was greater than 100 µM; in assay [2], 92.9 µM; in [3], greater than 100 µM; in assay [4], greater than 100 µM; in assay [5], greater than 100 µM; in assay [6] it was 57.4 µM. For the same molecule, the TGI in [7] is 72.3 µM; in assay [8], 56.7 µM; in [9], 61 µM; in assay [10], greater than 100 µM.

As for `O=C(O)C(Cc1ccc(O)c([N+](=O)[O-])c1)N1C(=O)c2ccccc2C1=O` (stereo not drawn), the TGI in [1], in assay [2], in assay [3], in [4], in assay [5] and in [6] was greater than 100 µM each time. Besides, the TGI in assay [7], in [8], in [9] and in [10] was greater than 100 µM throughout.

Consider `CN(C)CN1C(=O)S/C(=C2\C(=O)N(CN(C)C)c3ccccc32)C1=O`, for which the TGI in [1] is 73.2 µM; in [2], greater than 100 µM; in [3], greater than 100 µM; in assay [4], greater than 100 µM; in assay [5], greater than 100 µM; in [6], greater than 100 µM. In addition, the TGI in assay [7] was greater than 100 µM; in assay [8] it was greater than 100 µM; in assay [9], 74.5 µM; in assay [10], 93.1 µM.

In the case of `CC/C=C\C[C@H](O)C/C=C1/C(=O)C=C[C@@H]1C/C=C\CCCC(N)=O`, the GI50 in assay [1] was 0.35 µM; in assay [2], 2.34 µM; in assay [3], 3.89 µM; in [4], 3.15 µM; in [5], 1.68 µM; in assay [7] it was 2.31 µM. Also, the GI50 is 1.36 µM in assay [8], 10.5 µM in assay [9] and 1.58 µM in assay [10]. Also, the TGI turned out to be 1.69 µM in assay [1]; 5.48 µM in assay [2]; 11.8 µM in assay [3]; 6.74 µM in [4]; 4.21 µM in assay [5]; 5.69 µM in assay [7]. In addition, the TGI in [8] worked out at 3.36 µM; in assay [9] it was 22.3 µM; in [10], 5.33 µM.

As to `CCCc1ccc(N=Cc2cc(OC)c(OC)c(OC)c2)cc1`, the TGI in [1], in assay [2], in assay [3], in assay [4], in assay [5] and in assay [6] was greater than 100 µM throughout. In addition, the TGI in assay [7], in assay [8], in [9] and in assay [10] was greater than 100 µM throughout.

For the molecule `CCCCCCCCCCCC(=O)C1=C(O)C(O)CCC1=O` (stereo not drawn), the TGI was 28.2 µM in [1]; 70.3 µM in assay [2]; 80.2 µM in [3]; 48.3 µM in [4]; 43.2 µM in [5]; 45.4 µM in assay [6]. Further, the TGI in [7] stood at 25 µM; in [8], 25.5 µM; in assay [9], 67.7 µM; in assay [10] it was 60 µM.

For the origin of these results see PubChem BioAssay (NCI).
